# Data published in paper PMC6669322, “Small Molecule Binding to Alzheimer Risk Factor CD33 Promotes Aβ Phagocytosis” (iScience, 2019).
# Test system: differentiated THP-1 cells
# Assay: THP-1 phagocytosis assay (pHrodo E. coli BioParticles), wild-type cells
# Format: cell-based, human
# Settings: 30 min pre-treatment, in words
# Source text: Having shown that P22 binds specifically to the sialic acid-binding site of this domain we now have a chemical tool to answer the question of whether the sialic acid-binding site is the appropriate target for small molecule ligands that might promote Aβ uptake. Siglecs preferentially recognize multivalent presentation of their ligands ([Rillahan et al., 2014], [Büll et al., 2016]), and for this reason we conjugated the biotinylated form of P22 to microparticles labeled with both FITC and streptavidin (P22 microparticles) (see Transparent Methods). More than 60% CD33-transfected BV2 cells were positive for P22 microparticles compared with only 30% cells that were only incubated with control particles (unconjugated to P22) (Figure 4A). […]
# Figure 4 Effect of P22 on Phagocytosis The cells were treated with P22 conjugated to microparticles labeled with both streptavidin and fluorescein isothiocyanate (FITC), or with microparticles without P22 conjugated as control. […] (C) Quantification of phagocytic differentiated human THP-1 cells after incubation with P22 monomer, P22 conjugated microparticles, or microparticles without P22 conjugation. […]
# THP-1 cells (control and CD33KO) were differentiated in growth media (RPMI 1640, 10% FCS) supplemented with 100 ng/mL PMA for 3 days. […] Differentiated cells were then lifted, counted and 75,000 cells/well were plated in a 96 well plate. […]
structure (smiles),measurement,value
"Cc1cc(C(=O)NC[C@@H](O)[C@@H](O)[C@@H]2O[C@@](OC[C@H]3O[C@@H](O[C@H]4[C@H](O)[C@@H](O)[C@H](OCCN)O[C@@H]4CO)[C@H](O)[C@@H](O)[C@H]3O)(C(=O)O)C[C@H](O)[C@H]2NC(=O)Cn2cc(C3CCCCC3)nn2)cc(C)c1O [P22, β-D-Glucopyranoside, 2-aminoethyl O-[N-[2-(4-cyclohexyl-1H-1,2,3-triazol-1-yl)acetyl]-9-deoxy-9-[(4-hydroxy-3,5-dimethylbenzoyl)amino]-α-neuraminosyl] (2→6)-O-β-D-galactopyranosyl-(1→4)-]",effect on phagocytosis of E. coli BioParticles,no effect
